The results in this text go back to patent publication US11666650B2, “Immune composition comprising respiratory syncytial virus (RSV) G polypeptide” (ADVACCINE (SUZHOU) BIOPHARMACEUTICALS CO. LTD., priority 2019, dated 2023).

One data set deals with JAWSII cells. The data set can be described thus: IL-1β inhibition in stimulated JAWSII cells. The format is cell-based, mouse. The settings on record: immune regulator alone, LPS+Alum stimulated, 24 hours. Here is the method:
JAWSII cells (mouse bone marrow cells) were recovery from liquid nitrogen and put into a water bath at 37° C. The cells were washed twice with the MEM media. The recovered cells were cultured in 10 mL cMEM (MEM+20% FBS+5 ng/mL rmGM-CSF) for 5-7 days. The cells were ready for use after 2 passages.
The cell supernatant was collected for further analysis.
Each supernatant noted above was centrifuged under 12000 rpm at 4° C. for 5 minutes. The level of IL-1β (an immune active biomarker) was measured following the ELISA procedure provided below.
15. Calculate the IL-1β concentration of tested subject by standard curve. Inhibition percentage (%) was calculated as the percentage of the reduction of IL-1β level of each tested sample as compared with the positive control (LPS+Alum) and the blank control.

Data set [1] has as its system red blood cell suspension. The data set can be described thus: Hemolytic assay of formulations. The format is cell-based, Mouse.
Method: Mouse blood was collected and added with 800 μl of 15 mg/ml of EDTA to prevent the coagulation. It was centrifuged at 1,500 rpm for 15 min followed by discarding of the supernatant. The pellet was resuspended into 1 ml PBS, and centrifugated at 1,500 rpm for 15 min. The procedure was repeated for approximately 2 or 3 times until the supernatant became clear. The pellet containing red blood cells was resuspended with PBS at 1:10 to get 10% of red cell suspension after discarding supernatant, then further diluted into 2% with PBS. Five hundred microliters of 2% red blood cell suspension were mixed with 500 μl of different formulations, respectively, for a period of 180 minutes at 37° C. The hemolysis was recorded by a camera from the beginning to the end. After that, sample was centrifuged at 1,500 rpm for 2 min, the absorbance of supernatant was measured at OD405nm and the results were statistically analyzed.

SMILES strings stand for the structures.

On to `C=CC[C@@H]1/C=C(\C)C[C@H](C)C[C@H](OC)[C@H]2O[C@@](O)(C(=O)C(=O)N3CCCC[C@H]3C(=O)O[C@H](/C(C)=C/[C@@H]3CC[C@@H](O)[C@H](OC)C3)[C@H](C)[C@@H](O)CC1=O)[C@H](C)C[C@@H]2OC` [FK506], for which the “inhibition (immune suppression) of IL-1β level” value with JAWSII cells is “around 100%”.
For the molecule `CC(O)CO` (stereo not drawn) [propylene glycol], in data set [1], the hemolysis result is listed as “Various degrees of hemolysis”.
On to `CO[C@H]1C[C@@H]2CC[C@@H](C)[C@@](O)(O2)C(=O)C(=O)N2CCCC[C@H]2C(=O)O[C@H]([C@H](C)C[C@@H]2CC[C@@H](O)[C@H](OC)C2)CC(=O)[C@H](C)/C=C(\C)[C@@H](O)[C@@H](OC)C(=O)[C@H](C)C[C@H](C)/C=C/C=C/C=C/1C` [rapamycin], for which the “inhibition (immune suppression) of IL-1β level” value with JAWSII cells is “around 60%”.
